ChEMBL document CHEMBL1201862, “PubChem BioAssay data set” (2004)
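In this assay, cells in 96-well plates receive the compound at five concentrations for 48 hours. Endpoints are linearly interpolated between the surrounding concentrations. GI50: concentration for 50% inhibition of growth.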 The source made the active and inactive calls. Rule as the data show it: active = GI50 up to about 1.1 µM and inactive = higher.

Legend:
Assay in all cases: inhibition of tumour cell growth, NCI panel, 48 h
DMS-273 = system: DMS-273
KM-20L2 = system: KM-20L2
M19-MEL = system: M19-MEL
RXF 631 = system: RXF 631
SNB-78 = system: SNB-78
DLD-1 = system: DLD-1
XF498 = system: XF498
DMS-114 = system: DMS-114
HOP-18 = system: HOP-18

| SMILES | GI50 (DMS-273) | GI50 (KM-20L2) | GI50 (M19-MEL) | GI50 (RXF 631) | GI50 (SNB-78) | GI50 (DLD-1) | GI50 (XF498) | GI50 (DMS-114) | GI50 (HOP-18) |
| --- | --- | --- | --- | --- | --- | --- | --- | --- | --- |
| N#Cc1c(-c2ccco2)cc(-c2ccccc2)nc1O | > 100 µM (inactive) | > 100 µM (inactive) | > 100 µM (inactive) | > 100 µM (inactive) | > 100 µM (inactive) | > 100 µM (inactive) | – | – | – |
| CN/N=C(\C)C(CN1CCCCC1)C(C1=C(O)c2ccccc2OC1)c1ccccc1 (stereo unspecified) | > 100 µM (inactive) | > 100 µM (inactive) | > 100 µM (inactive) | > 100 µM (inactive) | > 100 µM (inactive) | – | > 100 µM (inactive) | 79.3 µM (inactive) | – |
| CC1CCP(=O)(c2ccccc2)c2ccccc21 (stereo unspecified) | 28.2 µM (inactive) | > 100 µM (inactive) | 24.4 µM (inactive) | – | > 100 µM (inactive) | 46.8 µM (inactive) | < 0.01 µM (active) | 38.4 µM (inactive) | > 100 µM (inactive) |
| COC(=O)C1=C(C(=O)OC)SC(=CC#CC=C2SC(C(=O)OC)=C(C(=O)OC)S2)S1 | 10.5 µM (inactive) | 11.9 µM (inactive) | 40.5 µM (inactive) | – | 12.2 µM (inactive) | 14.1 µM (inactive) | 4.53 µM (inactive) | 35.2 µM (inactive) | 8.87 µM (inactive) |
| CNC(=O)CN(CC(=O)NC)C(=O)NC | > 100 µM (inactive) | > 100 µM (inactive) | > 100 µM (inactive) | – | > 100 µM (inactive) | > 100 µM (inactive) | > 100 µM (inactive) | – | – |
| N/N=C1\C(=O)N(CCc2ccccc2)C(=O)C1C(=O)NCCc1ccccc1 (stereo unspecified) | > 100 µM (inactive) | > 100 µM (inactive) | > 100 µM (inactive) | > 100 µM (inactive) | > 100 µM (inactive) | > 100 µM (inactive) | > 100 µM (inactive) | – | – |
| CC(C)(Oc1ccc(/C=C/C(=O)c2ccc(Cl)cc2)cc1)C(=O)Nc1c(Cl)cccc1Cl | – | 20.3 µM (inactive) | 14.1 µM (inactive) | 19.5 µM (inactive) | – | 13.7 µM (inactive) | 17.7 µM (inactive) | 11.6 µM (inactive) | 80.4 µM (inactive) |
| N#CC1(C#N)C2(c3ccccc3)OC(c3ccccc3)(c3cc4ccccc4cc32)C1(C#N)C#N | 16.3 µM (inactive) | 13.3 µM (inactive) | – | – | – | 8.73 µM (inactive) | – | 7.89 µM (inactive) | 3.47 µM (inactive) |
| CC(C)OP(=O)(NC(=S)c1ccccc1)OC(C)C | > 100 µM (inactive) | > 100 µM (inactive) | > 100 µM (inactive) | – | > 100 µM (inactive) | > 100 µM (inactive) | > 100 µM (inactive) | 70.8 µM (inactive) | – |
| CN1C(=O)n2c(nc3ccccc32)C(N=[N+]=[N-])(N=[N+]=[N-])C1=O (stereo unspecified) | > 100 µM (inactive) | > 100 µM (inactive) | > 100 µM (inactive) | > 100 µM (inactive) | > 100 µM (inactive) | > 100 µM (inactive) | > 100 µM (inactive) | > 100 µM (inactive) | > 100 µM (inactive) |
| CC1(C)c2ccccc2N2O[C@@H]3C(=O)N(c4ccccc4)C(=O)[C@@H]3C21c1ccccc1 (stereo partly specified) | > 100 µM (inactive) | – | > 100 µM (inactive) | – | > 100 µM (inactive) | > 100 µM (inactive) | > 100 µM (inactive) | > 100 µM (inactive) | – |
| CCCCCCC(=O)C/C(CCC(=O)N(Cc1ccccc1)Cc1ccccc1)=N\Nc1ccc([N+](=O)[O-])cc1[N+](=O)[O-] | 55.8 µM (inactive) | 56.8 µM (inactive) | 55.7 µM (inactive) | – | > 100 µM (inactive) | 42 µM (inactive) | – | 17 µM (inactive) | 55.1 µM (inactive) |
| N#C/N=C(/NCCc1c[nH]c2ccccc12)Oc1ccccc1 | > 100 µM (inactive) | 22.5 µM (inactive) | 94.8 µM (inactive) | – | 98.9 µM (inactive) | > 100 µM (inactive) | 21.1 µM (inactive) | 40.9 µM (inactive) | – |
| COC(=O)c1cc(O)ccc1NC(=O)c1ccc(O)cc1 | – | > 100 µM (inactive) | > 100 µM (inactive) | > 100 µM (inactive) | > 100 µM (inactive) | > 100 µM (inactive) | > 100 µM (inactive) | > 100 µM (inactive) | > 100 µM (inactive) |
| CCC(=O)C1=C(OC(C)=O)C2Cc3c(n(C)c4ccccc34)C(C1)N2C (stereo unspecified) | 20 µM (inactive) | 35.9 µM (inactive) | 41.4 µM (inactive) | 22.9 µM (inactive) | 22.3 µM (inactive) | 23.8 µM (inactive) | – | 26.7 µM (inactive) | 25.4 µM (inactive) |
| COc1c2nc(CCl)[nH]c(=O)c2c(OC)c2nc(CCl)[nH]c(=O)c12 | > 100 µM (inactive) | > 100 µM (inactive) | > 100 µM (inactive) | – | > 100 µM (inactive) | > 100 µM (inactive) | > 100 µM (inactive) | > 100 µM (inactive) | > 100 µM (inactive) |
| COC(=O)N1CCc2c(nc(N(C)CCO)[nH]c2=O)C1 | > 100 µM (inactive) | > 100 µM (inactive) | > 100 µM (inactive) | – | > 100 µM (inactive) | > 100 µM (inactive) | > 100 µM (inactive) | > 100 µM (inactive) | > 100 µM (inactive) |
| CC(C)c1cccc(C(C)C)c1NC(=S)NN=C1C=C(C(C)(C)C)C(=O)C(C(C)(C)C)=C1 | 29.9 µM (inactive) | 24.2 µM (inactive) | – | 9.95 µM (inactive) | – | 36.4 µM (inactive) | 22.8 µM (inactive) | 7.26 µM (inactive) | – |
| COc1cc(Cn2c(=S)ss/c2=N\C(=S)N(C)C)cc(OC)c1OC | 4.41 µM (inactive) | 4.68 µM (inactive) | 4.11 µM (inactive) | 4.25 µM (inactive) | > 100 µM (inactive) | 6.31 µM (inactive) | – | 2.93 µM (inactive) | > 92 µM (inactive) |
